Results: US20140024638A1, “TREATMENT OF COGNITIVE DYSFUNCTION IN SCHIZOPHRENIA” (TARGACEPT, INC., priority 2011, published 2014)
“Also recorded” adds a separate entry of the source.

Assays:
[1] = test system: patients with schizophrenia; experiment: Clinical Global Impression - Severity (CGI-S), Phase 2 trial; format: in vivo, human; conditions: for CGI-SEVERITY: Adjusted Mean / CGI-SEVERITY: Mean Difference ± SE between TC-5619 and Placebo (Placebo-TC5619): All Patients; for CGI-S: Mean (SE): tobacco users; for CGI-S: Mean (SEM): total population
Procedure: (§1) The double blind, placebo controlled Phase 2 trial was conducted at 7 sites in the United States and 12 sites in India. […] Of the randomized patients, approximately 69% were male and approximately 46% were users of tobacco products. […] The primary efficacy outcome measure was GMLT, and the trial included a number of other scales as secondary efficacy outcome measures.

[2] = test system: patients with schizophrenia; experiment: CogState Detection task (psychomotor speed), Phase 2 trial; format: in vivo, human; conditions: for CogState Detection: Mean (SE): tobacco users meeting data integrity criteria; for CogState Detection: Mean (SEM): total population, subjects meeting data integrity criteria
Procedure: as §1

[3] = test system: patients with schizophrenia; experiment: CogState Identification task (attention), Phase 2 trial; format: in vivo, human; conditions: for CogState Identification: Mean (SE): tobacco users meeting data integrity criteria; for CogState Identification: Mean (SEM): total population, subjects meeting data integrity criteria
Procedure: as §1

[4] = test system: patients with schizophrenia; experiment: CogState 1-Card Learning task (visual learning), Phase 2 trial; format: in vivo, human; conditions: for CogState 1-Card Learning: Mean (SE): tobacco users meeting data integrity criteria; for CogState 1-Card Learning: Mean (SEM): total population, subjects meeting data integrity criteria
Procedure: as §1

[5] = test system: patients with schizophrenia; experiment: CogState 1-Back task (working memory), Phase 2 trial; format: in vivo, human; conditions: for CogState 1-Back: Mean (SE): tobacco users meeting data integrity criteria; for CogState 1-Back: Mean (SEM): total population, subjects meeting data integrity criteria
Procedure: as §1

[6] = test system: patients with schizophrenia; experiment: CogState International Shopping List (verbal learning), Phase 2 trial; parameters: species or system human; conditions: in vivo
Procedure: as §1

[7] = test system: patients with schizophrenia; experiment: Phase 2 clinical proof of concept trial, overall efficacy; format: in vivo, human; conditions: Phase 2 trial
Procedure: as §1
The GMLT is a computerized test designed to assess executive function (the ability to organize cognitive processes, including the ability to plan, prioritize, stop and start activities, shift from one activity to another activity and to monitor one's own behavior). Impaired executive function is thought to be an important aspect of cognitive dysfunction in schizophrenia.

[8] = test system: patients with schizophrenia; experiment: Phase 2 trial, safety and tolerability; format: in vivo, human
Procedure: as §1

[9] = test system: healthy volunteers; experiment: phase 1 trials in healthy volunteers; format: in vivo, human
[10] = target: α7 NNR receptor (Homo sapiens, UniProt P36544); experiment: agonism at the α7 NNR receptor; format: biochemical
α7 NNR receptor, sequence (P36544 23-502): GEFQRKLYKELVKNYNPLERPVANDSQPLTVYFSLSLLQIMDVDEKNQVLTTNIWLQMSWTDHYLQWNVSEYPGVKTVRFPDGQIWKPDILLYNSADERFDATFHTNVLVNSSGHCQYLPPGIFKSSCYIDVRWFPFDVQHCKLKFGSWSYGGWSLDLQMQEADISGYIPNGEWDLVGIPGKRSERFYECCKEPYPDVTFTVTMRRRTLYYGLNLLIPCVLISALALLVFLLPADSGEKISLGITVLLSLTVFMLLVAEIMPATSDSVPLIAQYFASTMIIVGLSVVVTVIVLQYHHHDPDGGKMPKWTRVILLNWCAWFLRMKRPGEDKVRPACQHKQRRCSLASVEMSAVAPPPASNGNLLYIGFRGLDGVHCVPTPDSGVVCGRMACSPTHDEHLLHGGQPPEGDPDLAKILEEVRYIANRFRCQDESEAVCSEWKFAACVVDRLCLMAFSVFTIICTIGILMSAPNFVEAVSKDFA

[11] = water solubility (salt screening); format: physicochemical
[12] = in vivo; cited from earlier work
[13] = in vivo; cited from earlier work; remark: listed apart in the source

**Q.** Which “CGI-SEVERITY: Adjusted Mean” value ([1]; Week 8, 5 mg daily, SE 0.05, placebo −0.24) does the source give for `O=C(N[C@@H]1C2CCN(CC2)[C@H]1Cc1cccnc1)c1cc2ccccc2o1` (single isomer, unassigned) [TC-5619] here?
**A.** Its value is −0.23.

**Q.** What about the “CGI-SEVERITY: Mean Difference ± SE between TC-5619 and Placebo (Placebo-TC5619)” value ([1]; Week 8, 5 mg daily, one-sided 90% CI (−0.09, ∞), one-sided P 0.5440) of the same compound?
**A.** The value was −0.01 ± 0.06.

**Q.** What about the “CGI-SEVERITY: Adjusted Mean” value ([1]; Week 12, 25 mg daily, SE 0.07, placebo −0.29) of the same compound?
**A.** Its value is −0.31.

**Q.** What about the “CGI-SEVERITY: Mean Difference ± SE between TC-5619 and Placebo (Placebo-TC5619)” value ([1]; Week 12, 25 mg daily, one-sided 90% CI (−0.11, ∞), one-sided P 0.4495) of the same compound?
**A.** The value was 0.01 ± 0.09.

**Q.** And the “Clinical Global Impression - Severity, result in words” value ([1]; secondary outcome measure)?
**A.** The value was “did not demonstrate a drug effect”.

**Q.** And the “CGI-S: Mean (SE)” value ([1]; Week 4, 1 mg daily, 1-tailed p = 0.434)?
**A.** Its value is 0.02 (0.09); p = 0.434.

**Q.** And the “CGI-S: Mean (SE)” value ([1]; Week 8, 5 mg daily, 1-tailed p = 0.224)?
**A.** The value was 0.08 (0.10); p = 0.224.

**Q.** And the “CGI-S: Mean (SE)” value ([1]; Week 12, 25 mg daily, 1-tailed p = 0.308)?
**A.** The value was 0.07 (0.14); p = 0.308.

**Q.** And the “CGI-S: Mean (SEM)” value ([1]; Week 4, 1 mg daily, 1-tailed p = 0.674)?
**A.** The value was −0.02 (0.06); p = 0.674.

**Q.** And the “CGI-S: Mean (SEM)” value ([1]; Week 8, 5 mg daily, 1-tailed p = 0.544)?
**A.** Its value is −0.01 (0.06); p = 0.544.

**Q.** And the “CGI-S: Mean (SEM)” value ([1]; Week 12, 25 mg daily, 1-tailed p = 0.450)?
**A.** The value was 0.01 (0.09); p = 0.450.

**Q.** And the “CogState detection (psychomotor speed), result in words” value ([2]; in vivo)?
**A.** The value was “statistically significant results of improvement”.

**Q.** And the “CogState Detection: Mean (SE)” value ([2]; Week 4, 1 mg daily, 1-tailed p = 0.254)?
**A.** Its value is −0.014 (0.021); p = 0.254.

**Q.** And the “CogState Detection: Mean (SE)” value ([2]; Week 8, 5 mg daily, 1-tailed p = 0.491)?
**A.** The value was −0.000 (0.021); p = 0.491.

**Q.** What about the “CogState Detection: Mean (SE)” value ([2]; Week 12, 25 mg daily, 1-tailed p = 0.265) of the same compound?
**A.** The value was −0.013 0.021); p = 0.265 ^.

**Q.** And the “CogState Detection: Mean (SEM)” value ([2]; Week 4, 1 mg daily, 1-tailed p = 0.693)?
**A.** The value was 0.007 (0.015); p = 0.693.

**Q.** What about the “CogState Detection: Mean (SEM)” value ([2]; Week 8, 5 mg daily, 1-tailed p = 0.650) of the same compound?
**A.** Its value is 0.006 (0.014) p = 0.650^.

**Q.** What about the “CogState Detection: Mean (SEM)” value ([2]; Week 12, 25 mg daily, 1-tailed p = 0.567) of the same compound?
**A.** The value was 0.002 (0.015) p = 0.567^.

**Q.** And the “CogState identification (attention), result in words” value ([3]; in vivo)?
**A.** The value was “statistically significant results of improvement”.

**Q.** What about the “CogState Identification: Mean (SE)” value ([3]; Week 4, 1 mg daily, 1-tailed p = 0.097) of the same compound?
**A.** Its value is −0.021 (0.016); p = 0.097.

**Q.** What about the “CogState Identification: Mean (SE)” value ([3]; Week 8, 5 mg daily, 1-tailed p = 0.261) of the same compound?
**A.** Its value is −0.011 (0.017); p = 0.261.

**Q.** What about the “CogState Identification: Mean (SE)” value ([3]; Week 12, 25 mg daily, 1-tailed p = 0.057) of the same compound?
**A.** The value was −0.026 (0.016); p = 0.057.

**Q.** And the “CogState Identification: Mean (SEM)” value ([3]; Week 4, 1 mg daily, 1-tailed p = 0.311)?
**A.** The value was −0.005 (0.011); p = 0.311.

**Q.** What about the “CogState Identification: Mean (SEM)” value ([3]; Week 8, 5 mg daily, 1-tailed p = 0.111) of the same compound?
**A.** Its value is −0.014 (0.012); p = 0.111.

**Q.** What about the “CogState Identification: Mean (SEM)” value ([3]; Week 12, 25 mg daily, 1-tailed p = 0.063) of the same compound?
**A.** The value was −0.017 (0.011); p = 0.063.

**Q.** And the “CogState 1-card learning (visual learning), result in words” value ([4]; in vivo)?
**A.** The value was “statistically significant results of improvement”.

**Q.** What about the “CogState 1-Card Learning: Mean (SE)” value ([4]; Week 4, 1 mg daily, 1-tailed p = 0.615) of the same compound?
**A.** The value was −0.008 (0.027); p = 0.615.

**Q.** And the “CogState 1-Card Learning: Mean (SE)” value ([4]; Week 8, 5 mg daily, 1-tailed p = 0.778)?
**A.** The value was −0.021; 0.028); p = 0.778.

**Q.** And the “CogState 1-Card Learning: Mean (SE)” value ([4]; Week 12, 25 mg daily, 1-tailed p = 0.338)?
**A.** The value was 0.012 (0.028); p = 0.338.

**Q.** What about the “CogState 1-Card Learning: Mean (SEM)” value ([4]; Week 4, 1 mg daily, 1-tailed P = 0.660) of the same compound?
**A.** The value was −0.008 (0.019); P = 0.660 ^.

**Q.** And the “CogState 1-Card Learning: Mean (SEM)” value ([4]; Week 8, 5 mg daily, 1-tailed P = 0.899)?
**A.** Its value is −0.024 (0.019); P = 0.899 ^.

**Q.** What about the “CogState 1-Card Learning: Mean (SEM)” value ([4]; Week 12, 25 mg daily, 1-tailed P = 0.841) of the same compound?
**A.** The value was −0.019 (0.020); P = 0.841 ^.

**Q.** What about the “CogState 1-back (working memory), result in words” value ([5]; in vivo) of the same compound?
**A.** Its value is “statistically significant results of improvement”.

**Q.** And the “CogState 1-Back: Mean (SE)” value ([5]; Week 4, 1 mg daily, 1-tailed p = 0.605)?
**A.** The value was 0.005 (0.021); p = 0.605.

**Q.** And the “CogState 1-Back: Mean (SE)” value ([5]; Week 8, 5 mg daily, 1-tailed p = 0.329)?
**A.** The value was −0.009 (0.021); p = 0.329.

**Q.** What about the “CogState 1-Back: Mean (SE)” value ([5]; Week 12, 25 mg daily, 1-tailed p = 0.020) of the same compound?
**A.** Its value is −0.042 (0.020); p = 0.020.

**Q.** And the “CogState 1-Back: Mean (SEM)” value ([5]; Week 4, 1 mg daily, 1-tailed p = 0.691)?
**A.** Its value is 0.007 (0.014); p = 0.691.

**Q.** What about the “CogState 1-Back: Mean (SEM)” value ([5]; Week 8, 5 mg daily, 1-tailed p = 0.647) of the same compound?
**A.** The value was 0.005 (0.015); p = 0.647.

**Q.** And the “CogState 1-Back: Mean (SEM)” value ([5]; Week 12, 25 mg daily, 1-tailed p = 0.042)?
**A.** Its value is −0.024 (0.014); p = 0.042.

**Q.** And the “CogState International Shopping List (verbal learning), result in words” value [6]?
**A.** Its value is “statistically significant results of improvement”.

**Q.** And the “efficacy by tobacco use” value [7]?
**A.** Its value is “showed efficacy primarily in tobacco users”.

**Q.** What about the “efficacy in Cognitive Deficits in Schizophrenia (GMLT, SANS, CGI-Global, SGI-Cog, CogState objective cognitive endpoints)” value ([7]; add-on to quetiapine or risperidone, 12 weeks, 1/5/25 mg daily) of the same compound?
**A.** The value was “positive efficacy”.

**Q.** What about the “discontinuations due to adverse events, difference to placebo dose group” value ([8]; Phase 2 trial) of the same compound?
**A.** The value was “no clinically significant difference”.

**Q.** And the tolerability ([8]; Phase 2 trial, 12 weeks, 1/5/25 mg daily, listed as (2S,3R)—N-(2-((3-pyridinyl)methyl)-1-azabicyclo[2.2.2]oct-3-yl)benzofuran-2-carb)?
**A.** Its tolerability is “well tolerated; also recorded: favorable tolerability profile”.

**Q.** What about the “serious adverse events in the dose group” value ([8]; one also in placebo dose group, considered by the investigator as not drug related) of the same compound?
**A.** Its value is “one”.

**Q.** What about the “nausea (most frequent adverse event more common than in placebo cohort)” value ([8]; placebo 0%, mild to moderate in severity, never led to patient dropout) of the same compound?
**A.** Its value is 5%.

**Q.** What about the attention ([9]; 6.7 mg administered) of the same compound?
**A.** Its attention is “robust improvement in attention”.

**Q.** And the tolerability ([9]; phase 1 trials)?
**A.** The tolerability was “generally well tolerated”.

**Q.** What about the “agonist character at the α7 NNR” value ([10]; listed as (2S,3R)—N-(2-((3-pyridinyl)methyl)-1-azabicyclo[2.2.2]oct-3-yl)benzofuran-2-carb) of the same compound?
**A.** The value was “selective alpha7 NNR agonist”.

**Q.** And the “agonist character at the α7 NNR” value ([10]; listed as Compound A)?
**A.** The value was “highly selective, full agonist”.

**Q.** And the “separation between EC50 and the IC50 (for residual inhibition)” value ([10]; α7 NNR receptor)?
**A.** The value was “good separation”.

**Q.** What about the water solubility [11] of the same compound?
**A.** The water solubility was “very limited”.

**Q.** And the “efficacy in preclinical models of memory” value [12]?
**A.** Its value is “had efficacy”.

**Q.** And the “efficacy in preclinical models of schizophrenia” value [13]?
**A.** The value was “effective”.
